Patent US7273723B2, “Antibiotic-based gene regulation system” (priority 2001, dated 2007)

How the values were obtained:
ET1/PETR3 [1] = test: CFP expression in CHO cells infected with ET1-encoding lentivirus (pMF391) and transfected with pWW44; format: cell-based; conditions: 2 μg/ml erythromycin
ET1/PETR3 [2] = test: Dose-response of EM-dependent SEAP expression in stable CHO-ET11-SEAP; format: cell-based, Chinese hamster ovary cells; conditions: 48 h
Description: The cell line CHO-ET1-SEAP1 was grown for 48 h at different EM concentrations (ng/ml). The relative SEAP production is shown over 5 orders of magnitude of EM concentration.
(§1) Chinese hamster ovary cells (CHO-K1, ATCC: CCL 61), and HeLa cells (ATCC: CRL-7923) as well as stable cell lines derived thereof were cultured as described before (Fussenegger et al., 1998, Nat. Biotechnol. 16,468-472) in the presence of appropriate antibiotics: G418 400 μg/ml; zeocin 100 μg/ml. Optimized CaPO4 protocols were used for high efficiency transient transfection of all cell lines (Fussenegger et al., 1998. Nat. Biotechnol. 16: 468-472). Transiently transfected cells were routinely analyzed after 48 h for CFP or SEAP expression using fluorescence microscopy and p-nitrophenolphosphate-based light absorbance timecourse, respectively, as described before (Fussenegger et al., 1998, Nat. Biotechnol. 16, 468-472; Berger et al., 1988, Gene 66, 1-10 b). For construction of stable CHO-ET1 and CHO-Triplet42 cell lines, CHO-Ki and CHO-TWIN1108 (Disclosed in PCT application no. 00/65080) were cotransfected with pWW35 and pZeoSV2 (invitrogen). CHO-ET11-SEAP was constructed by cotransfection of pWW38 and pSV2neo (Clontech) into CHO-ET11. The mixed populations were cloned using FACS-mediated single-cell-sorting (FACStar^Plus; Beckton Dickinson). For assessment of dose-response characteristics of PETR3-regulated gene expression, CHO-ET11-SEAP were cultured at cell densities of 50,000/ml for 48 h at various EM concentrations.
Varying the concentrations of EM used for induction could control the levels of PETR3-regulated gene expression. This was assessed using a stable CHO cell line (CHO-ET11-SEAP) which expresses PETR3-SEAP (pWW38) and stably contains also a constitutive ET1 expression vector (pWW35). […] Increasing EM concentration above 10 ng/ml leads to a gradual decrease in SEAP expression, with lowest SEAP expression levels at EM concentrations over 1000 ng/ml. […]

[3] = tested on: ET1 / plant promoters PETRp1, PETRp8; test: EpOFF erythromycin-repressible GUS expression in Nicotiana tabacum SR1 suspension cells; format: cell-based; conditions: erythromycin 250 μg/ml, 48 hours
Description: The transformation protocol of SR1 cells was adapted from Wu and Feng (1999, Plant Cell Reports 18: 381-386). In brief, 200 mg of exponentially growing SR1 cells were harvested by centrifugation. The cells were incubated for 15 min. in 2% DMSO and washed twice in fresh medium. Cells were subsequently resuspended in electroporation buffer (5 mM CaCl2; 10 mM NaCl2; 0.4 M sucrose; 8.7% glycerol; 4 mM ascorbate; 10 mM HEPES; pH 6.8) and mixed with desired DNA at a concentration of 0.2 μg/μl. The cell-DNA mixture was incubated for 10 min. on ice electroporated at 700 V/cm and 980 μF using a BioRad Gene Pulser and appropriate cuvettes. […]
Transformed SR1 cells were incubated at 25° C. for 48 h while rocking at 110 rpm. […] Protein concentration of plant extracts was determined using a Bradford assay (Bradford, 1976, Anal. Biochem. 72: 248-254). […] The fluorescence time course was determined using typical 365 nm/455 nm excitation/emission profiles and a Shimadzu RF-5001 PC spectrofluorophotometer.
pBP6 (PCaMV35S-ET1-pAocs, FIG. 9a) was cotransformed either with pBP 18 (PETRp1-GUS-pA35S; FIG. 9b) or pBP36 (PETRp8-GUS-pA35S; FIG. 9b) by electroporation into the Nicotiana tabacum cell line SR1. GUS activity was assessed after 48 hours using a fluorescence-based detection technology.

[4] = tested on: ET1 (MphR(A)-VP16) / PETR promoters; test: SEAP reporter assay, CHO lines stably expressing ET1 (CHO-ET11, CHO-ET12) transiently transfected with PETR-SEAP plasmids; format: cell-based; conditions: for SEAP Production (%) +EM: 2 μg/ml EM, −EM = 100; for SEAP activity [U/L] + EM: erythromycin 2 μg/ml
Description: as §1
Other antibiotics were eluted from antibiotic test discs (Mast Diagnostica GmbH, Reinfeld, Germany, or bioMérieux, Geneva Switzerland) in cell culture medium at 37° C. for 12 h to reach a final concentration of 30 μg/ml. All macrolide antibiotics were used at a 2 μg/ml concentration unless indicated otherwise.
Two representative clones, CHO-ET11 and CHO-ET12, were chosen at random among ET1-expressing CHO cell clones stably transfected with a constitutive ET1 expression construct (pWW35).
Access to alternative effective antibiotics would expand the spectrum of regulating agents available for future use in human cell and gene therapy. Accordingly, several commercially available antibiotic sources were tested for their potential to regulate the ET1/PETR3 system as shown below in Table 3.
The effect of the different spacer length in promoters PETR2 and PETR7-PETR11 were examined by transfecting the corresponding plasmids (pWW37, pBP10-pBP14) into a CHO cell line stably transfected with the transactivator ET1 (MphR(A)-VP 16, see example 1).

[5] = tested on: PETR1-YFP and PhCMV*-1-CFP expression units; test: Dual-regulated vector pDuoRex9 (pWW94) in CHO-Triplet42 by fluorescence microscopy; format: cell-based; conditions: transient transfection into CHO-Triplet42

Compound: CC[C@H]1OC(=O)[C@H](C)[C@@H](O[C@H]2C[C@@](C)(OC)[C@@H](O)[C@H](C)O2)[C@H](C)[C@@H](O[C@@H]2O[C@H](C)C[C@H](N(C)C)[C@H]2O)[C@](C)(O)C[C@@H](C)C(=O)[C@H](C)[C@@H](O)[C@]1(C)O [Erythromycin]
- CFP expression (fluorescence) (ET1/PETR3 [1]): complete repression
- EM concentration at which ET1/PETR3 is fully induced (ET1/PETR3 [2]): < 10 ng/mL
- EM concentration at which ET1/PETR3 is repressed (lowest SEAP expression) (ET1/PETR3 [2]): > 1000 ng/mL
- EM concentration window in which gene expression can be adjusted to different levels (ET1/PETR3 [2]): 10 to 1000 ng/mL
- GUS expression level in the presence of erythromycin ([3]; pBP6 + pBP18 (PETRp1)): 32.2±3.9 pmoles 4-MU min^−1 mg^−1 protein^−1
- GUS expression level in the presence of erythromycin ([3]; pBP6 + pBP36 (PETRp8)): 44.2±4.6 pmoles 4-MU min^−1 mg^−1 protein^−1
- SEAP Production (%) +EM ([4]; CHO-ET11 + PETR3-SEAP (pWW38)): 1.75 ± 0.1%
- SEAP production [%] ([4]; CHO-ET11 transiently transfected with pWW38, 48 h, antibiotic 2 μg/ml, no macrolide = 100): 1.7 ± 0.1%
- SEAP Production (%) +EM ([4]; CHO-ET12 + PETR3-SEAP (pWW38)): 4.67 ± 0.8%
- Reversibility of EM-responsive SEAP regulation ([4]; both CHO-ET1 derivatives, repeated cycles of addition and withdrawal): fully reversible
- SEAP activity [U/L] + EM ([4]; pBP10 (PETR7, 2 bp) in CHO stably transfected with ET1, 48 h): 4.2 ± 1.0 U/L
- SEAP activity [U/L] + EM ([4]; pBP12 (PETR9, 6 bp) in CHO stably transfected with ET1, 48 h): 8.4 ± 1.6 U/L
- SEAP activity [U/L] + EM ([4]; pBP13 (PETR10, 8 bp) in CHO stably transfected with ET1, 48 h): 19.7 ± 1.4 U/L
- SEAP activity [U/L] + EM ([4]; pWW37 (PETR2, 0 bp) in CHO stably transfected with ET1, 48 h): 8.3 ± 0.2 U/L
- YFP and CFP expression from pDuoRex9 (fluorescence microscopy) [5]: independent on/off-regulation
